Laboratory results from patent publication EP4342530A1, “SORTILIN MODULATORS” (Insusense ApS, priority 2022, dated 2024).

What was measured:
Sortilin [1] = target: T1, Sortilin (Homo sapiens, UniProt Q99523); test: Creoptix (GCI) binding kinetics, human Sortilin; settings: Species Human, screened at 1 µM, 25 degrees Celsius
T1 construct: purchased Bio-Techne Ltd 3154-ST-050
T1 sequence (Q99523 78-755 limits assumed): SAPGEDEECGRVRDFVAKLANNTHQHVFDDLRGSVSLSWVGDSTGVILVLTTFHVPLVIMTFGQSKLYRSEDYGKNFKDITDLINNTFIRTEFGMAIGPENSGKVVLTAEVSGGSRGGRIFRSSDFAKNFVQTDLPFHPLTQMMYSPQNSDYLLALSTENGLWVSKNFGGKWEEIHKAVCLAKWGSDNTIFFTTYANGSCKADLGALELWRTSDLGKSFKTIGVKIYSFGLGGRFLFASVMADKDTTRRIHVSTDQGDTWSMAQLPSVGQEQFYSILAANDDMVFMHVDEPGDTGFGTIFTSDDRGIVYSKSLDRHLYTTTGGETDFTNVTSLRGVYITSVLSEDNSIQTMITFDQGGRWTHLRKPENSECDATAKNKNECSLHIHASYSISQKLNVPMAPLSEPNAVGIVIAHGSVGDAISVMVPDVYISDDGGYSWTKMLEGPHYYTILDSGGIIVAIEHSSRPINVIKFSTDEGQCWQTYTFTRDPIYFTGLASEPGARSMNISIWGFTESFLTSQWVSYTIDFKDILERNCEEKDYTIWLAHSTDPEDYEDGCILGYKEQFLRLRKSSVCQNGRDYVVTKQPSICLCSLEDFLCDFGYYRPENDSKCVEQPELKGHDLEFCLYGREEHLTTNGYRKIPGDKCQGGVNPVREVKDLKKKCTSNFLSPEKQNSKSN
Description: (§1) Creoptix (GCI) method - using SEQ ID NO.4 (Murine sortillin)
(§2) A protein, bound to a surface, is bathed in a solution containing potential ligands giving rise to binding kinetics to generate Kon and Koff rates, as well as a Kd.
(§3) All buffers described were filtered using a 0.2µm filter (Product number: 10300461, Nalgene) and degassed for 15 minutes prior to use.
(§4) A flow cell temperature of 25 degrees Celsius was used throughout the experiment.
(§5) A 4PCH chip was conditioned across all flow cells using 0.2 X concentration running buffer (running buffer composition: 1XHBS-N, pH 7.4, 3.4 mM EDTA, 1% DMSO) using pre-set conditioning wizard (WAVE control software) injecting: 0.1 M borate, 1 M NaCl (pH 9) followed by three start-up injections of 0.2 X running buffer.
(§6) A buffer exchange was performed and 1x running buffer (1XHBS-N, pH 7.4, 3.4 mM EDTA, 1% DMSO) used during the immobilisation procedure: An initial injection of EDC/NHS (mixed in 1:1 ratio) was performed across all 4-flow cells to activate the surface for amine coupling of ligands.
(§7) Recombinant Sortilin aliquots were thawed quickly by hand and centrifuged at 13,300 rpm for 10 minutes. A 10 µg/ml protein solution was then made in pH 5.0 acetate and injected once for 20 minutes over flow-cells 2, 3 and 4 for human, human (flow cells 2 & 3), and mouse Sortilin respectively followed by a 60 second dissociation period.
(§8) A final 7-minute passivation injection of 50 mM tris was used across all flow cells.
(§9) A flow rate of 10 µl/min was used for all conditioning and immobilisation cycles.
(§10) Compounds were screened at 1 µM using the in-built 'intermediate binders' settings: 100 ul/min, 45 s baseline, 25 s association, 300 s dissociation, with blanks every 5th sample and a DMSO correction (1.5 % DMSO at the start and end of the experiment as well as every 20 cycles. An acquisition rate of 10 Hz was used throughout the experiment.
(§11) Compounds were screened at a final assay concentration of 1 µM and a final DMSO concentration was 1 %. To achieve this, compounds were diluted in DMSO from 10 mM stocks to 100 µM (100 x final assay concentration) then diluted 1:100 in running buffer which contained no DMSO to establish a final assay concentration of compound of 1 µM and a final DMSO concentration of 1 % [DMSO].
(§12) Compounds and DMSO were mixed by plate shaking at 1000 rpm for 60 seconds using a Bioshake instrument.
(§13) A flow rate of 100 µl/min was used throughout the experiment.
(§14) Data was evaluated using the RAPID kinetic analysis tool in the GCI WAVE_control software with data fitted using a standard 1:1 kinetic BioModel.

Sortilin [2] = target: T2, Sortilin (Mus musculus, UniProt Q6PHU5); test: Creoptix (GCI) binding kinetics, mouse Sortilin; settings: Species Mouse, screened at 1 µM, 25 degrees Celsius
T2 construct: purchased Bio-Techne Ltd 2934-ST-050
T2 sequence (Q6PHU5 76-753 limits assumed): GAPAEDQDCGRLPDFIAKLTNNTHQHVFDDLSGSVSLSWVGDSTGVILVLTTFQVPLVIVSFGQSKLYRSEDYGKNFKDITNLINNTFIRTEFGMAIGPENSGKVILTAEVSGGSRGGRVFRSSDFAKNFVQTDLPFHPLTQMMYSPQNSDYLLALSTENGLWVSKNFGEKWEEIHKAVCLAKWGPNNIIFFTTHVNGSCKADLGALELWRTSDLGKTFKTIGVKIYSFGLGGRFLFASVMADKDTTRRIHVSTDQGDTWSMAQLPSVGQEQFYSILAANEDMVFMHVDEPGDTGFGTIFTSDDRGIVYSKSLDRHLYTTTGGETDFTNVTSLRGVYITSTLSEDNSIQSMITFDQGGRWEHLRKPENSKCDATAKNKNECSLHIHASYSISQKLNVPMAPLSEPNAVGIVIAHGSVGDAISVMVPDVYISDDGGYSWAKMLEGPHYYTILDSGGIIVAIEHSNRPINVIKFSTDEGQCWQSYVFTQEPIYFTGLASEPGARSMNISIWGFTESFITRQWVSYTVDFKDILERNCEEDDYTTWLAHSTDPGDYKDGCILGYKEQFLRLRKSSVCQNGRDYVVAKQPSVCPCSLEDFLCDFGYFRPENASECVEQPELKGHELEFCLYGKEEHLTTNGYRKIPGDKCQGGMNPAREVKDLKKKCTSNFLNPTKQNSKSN
Description: as §1, §2, §3, §4, §5, §6, §7, §8, §9, §10, §11, §12, §13, §14

SMILES | Kd (Sortilin [1]; Form of Compound Free acid) [nM] | Kd (Sortilin [1]; Form of Compound Mesylate salt) [nM] | Kd (Sortilin [2]; Form of Compound Free acid) [nM] | Kd (Sortilin [2]; Form of Compound Mesylate salt) [nM]
CC(C)(C)CC[C@H](NCc1ccc2c(c1)COCC2)C(=O)O [Example 3, (S)-2-((isochroman-7-ylmethyl)amino)-5,5-dimethylhexanoic acid] | 237 | 52 | 65 | 
C[C@@H](N[C@@H](CCC(C)(C)C)C(=O)O)c1ccc2c(c1)OCCC2 [Example 9] | 227 | 64.9 | 60 | 59.5
C[C@H](N[C@@H](CCC(C)(C)C)C(=O)O)c1ccc2c(c1)CCCO2 [Example 50] | 120 | 221 | 258 | 258
C[C@@H](N[C@@H](CCC(C)(C)C)C(=O)O)c1ccc2c(c1)CCCO2 [Example 52] | 384 | 133 |  | 129
